According to patent publication US20190091165A1, “METHOD FOR PREPARING NANOPARTICLE OF ACTIVE INGREDIENT USING LIPID AS LUBRICANT IN MILLING PROCESS” (BIO-SYNECTICS INC., priority 2017, published 2019):

Assay: Separate experiment: dissolving and recrystallizing in a solvent (crystal form / salt stability)
Assay type: physicochemical

CNC(=O)c1cc(Oc2ccc(NC(=O)Nc3ccc(Cl)c(C(F)(F)F)c3)cc2)ccn1.Cc1ccc(S(=O)(=O)O)cc1 [Sorafenib tosylate III]
crystal form and salt stability on recrystallization: crystal form change and partial generation of free base compound by loss of tosylate salt
